Where a SMILES comes first, the peptide text is derived from it. Where no end group is shown, it is not given here. [ ]: non-standard residue; d: D form. Orn = NCCC[C@H](N)C(=O)O; Nva = CCC[C@H](N)C(=O)O
Tests used:
HLA-A*0201 = HLA-A*0201 (Homo sapiens, UniProt P04439, D140Y/D185E/D98H/E176V/E277Q/G131W/G231S/I119V/I121R/I166T/I218V/L300P/L318F/N151K/N90K/P208A/P217A/Q86G/Q94H/R138H/R169H/T345S); experiment: ED50 (M)
[1] = tested on: T cell lines specific for the native epitope (PRAME425-433); experiment: Cross-reactivity of PRAME 425-433 analogs: IFN-gamma secretion from T cell lines specific for the native epitope; type: cell-based, HHD transgenic mice; settings: analog peptide at approximately 0.3 μM
Description: The analogs listed in FIGS. 26-28 were tested for various properties such as improved affinity and stability of binding, cross-reactivity with the native epitope, and immunogenicity as follows in Examples 40-48. […] The observed affinities of the analogs are reported as % binding (compared to the positive control) and ED50s. Stability of binding as half time of dissociation. Cross reactivity with the native epitope was assessed by using the analog peptides to stimulate IFG-gamma secretion from a T cell lines specific for the native epitope, essentially as described in Example 6. The data shown in FIGS. 26-28 were generated by stimulating with analog peptide at approximately 0.3 μM. […] In some cases the reported values are the average of two determinations.

[2] = tested on: T cells specific for the wild-type NY-ESO-1157-165 epitope; experiment: Cross-reactivity and functional avidity of NY-ESO-1 157-165 analogs (IFN-gamma, T cells specific for the wild-type epitope); type: cell-based, HHD transgenic mice; settings: IFN-gamma production ex vivo
HLA-A*0201 on T2 cells = biological target: T1, HLA-A*0201 on T2 cells (human); experiment: T2 cell binding assay (flow cytometry)
T1 construct: Class I MHC stabilised on T2 cells by added peptide, detected with a fluorescent anti-A2 antibody; also called HLA-A2; MHC class I (A2 allele)

Molecule	EC50 (HLA-A*0201) [nM]	further results
CCC[C@H](NC(=O)[C@@H](N)CO)C(=O)N[C@@H](CC(C)C)C(=O)N[C@@H](CCC(N)=O)C(=O)N[C@@H](Cc1c[nH]cn1)C(=O)N[C@@H](CC(C)C)C(=O)N[C@H](C(=O)NCC(=O)N[C@@H](CC(C)C)C(=O)O)[C@@H](C)CC [6 | Prame 425-433 (L426(Nva)), S(Nva)LQHLIGL] (H-S[Nva]LQHLIGL-OH; N-terminus and C-terminus assumed)	1910	
CC[C@H](C)[C@H](NC(=O)[C@H](CC(C)C)NC(=O)[C@H](Cc1c[nH]cn1)NC(=O)[C@H](CCC(N)=O)NC(=O)[C@H](CC(C)C)NC(=O)[C@H](CC(C)C)NC(=O)[C@@H](N)CCCN)C(=O)NCC(=O)N[C@@H](CC(C)C)C(=O)O [12 | Prame 425-433 (S425(Orn))] (H-[Orn]LLQHLIGL-OH; N-terminus and C-terminus assumed)	2250	
CCC[C@H](NC(=O)CNC(=O)[C@@H](NC(=O)[C@H](CC(C)C)NC(=O)[C@H](Cc1c[nH]cn1)NC(=O)[C@H](CCC(N)=O)NC(=O)[C@H](CC(C)C)NC(=O)[C@H](CC(C)C)NC(=O)[C@@H](N)CO)[C@@H](C)CC)C(=O)O [18 | Prame 425-433 (L433(Nva))] (H-SLLQHLIG[Nva]-OH; N-terminus and C-terminus assumed)	1660	
FLLQHLIGL [9 | Prame 425-433 (S425F)]	434	
Lys P1 analog: PRAME 425-433 analog with Lys for the Ser at the P1 position (KLLQHLIGL; UniProt P78395 425-433, looked up, variant S425K)		IFN-γ elicited, as percent of the native peptide [1]: 40%
NY-ESO-1157-166: 10-mer of the wild-type NY-ESO-1 sequence, residues 157-166 (SLLMWITQCF; UniProt P78358 157-166, looked up, fragment)		Activity in the cross-reactivity/functional avidity assay relative to wild-type NY-ESO-1 157-165, in words [2]: showed no immunological activity
SMLQHLIGL [3 | Prame 425-433 (L426M)]	988	
TLLQHLIGL [11 | Prame 425-433 (S425T)]	1450	
YLLQHLIGL [10 | Prame 425-433 (S425Y)]	550	
KVSEKIFYX (C-terminal amide) [SSX-2 41-49-NH2 (A42V)]		binding result (HLA-A*0201 on T2 cells): no binding
